From the supplement of paper PMC5908809

How the values were obtained:
Assay in all cases: relative IC50 (inflection point of fitted viability curve, relative to fitted max inhibition); higher = less sensitive
Settings in all cases: 72 h
DERL-7 (IL-2 2.5 ng/mL) = tested on: DERL-7 (IL-2 2.5 ng/mL)
Description: (§1)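 Drug sensitivity and resistance testing: 5 concentrations over a 10,000-fold range, 72 h at 37 °C, viability by CellTiter-Glo normalised to DMSO and benzethonium chloride controls. IC50 is the inflection point of a logistic fit (min fixed at 0, max fitted), so it is relative to the fitted maximal inhibition. Kept only where fitted max inhibition is at least 50%.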

IMC-1 (IL-2 20 ng/mL) = tested on: IMC-1 (IL-2 20 ng/mL)
Description: as §1

KAI3 (IL-2 2.5 ng/mL) = tested on: KAI3 (IL-2 2.5 ng/mL)
Description: as §1

KHYG-1 (IL-2 2.5 ng/mL) = tested on: KHYG-1 (IL-2 2.5 ng/mL)
Description: as §1

NK-92 (IL-2 2.5 ng/mL) = tested on: NK-92 (IL-2 2.5 ng/mL)
Description: as §1

NK-YS (IL-2 2.5 ng/mL) = tested on: NK-YS (IL-2 2.5 ng/mL)
Description: as §1

NKL (IL-2 2.5 ng/mL) = tested on: NKL (IL-2 2.5 ng/mL)
Description: as §1

SNK-6 (IL-2 2.5 ng/mL) = tested on: SNK-6 (IL-2 2.5 ng/mL)
Description: as §1

YT (IL-2 2.5 ng/mL) = tested on: YT (IL-2 2.5 ng/mL)
Description: as §1

Compound	relative IC50 (DERL-7 (IL-2 2.5 ng/mL)) [nM]	relative IC50 (IMC-1 (IL-2 20 ng/mL)) [nM]	relative IC50 (KAI3 (IL-2 2.5 ng/mL)) [nM]	relative IC50 (KHYG-1 (IL-2 2.5 ng/mL)) [nM]	relative IC50 (NK-92 (IL-2 2.5 ng/mL)) [nM]	relative IC50 (NK-YS (IL-2 2.5 ng/mL)) [nM]	relative IC50 (NKL (IL-2 2.5 ng/mL)) [nM]	relative IC50 (SNK-6 (IL-2 2.5 ng/mL)) [nM]	relative IC50 (YT (IL-2 2.5 ng/mL)) [nM]
Nc1ncn([C@@H]2O[C@H](CO)[C@@H](O)[C@H]2O)c(=O)n1 [Azacitidine]	1440	3620	1150	1520	1470	1600	3860	384	
CS(=O)(=O)c1ccc(-c2cnc(N)c(C(=O)Nc3ccccc3)n2)cc1 [VE-821]	1540	2660	332	1550				795	
C=CC(=O)N1CCC[C@@H](n2nc(-c3ccc(Oc4ccccc4)cc3)c3c(N)ncnc32)C1 [Ibrutinib]		> 1000							
Cn1cnc2c(F)c(Nc3ccc(Br)cc3F)c(C(=O)NOCCO)cc21 [Binimetinib]							19.6	> 1000	
CO[C@H]1C[C@@H]2CC[C@@H](C)[C@@](O)(O2)C(=O)C(=O)N2CCCC[C@H]2C(=O)O[C@H]([C@H](C)C[C@@H]2CC[C@@H](OP(C)(C)=O)[C@H](OC)C2)CC(=O)[C@H](C)/C=C(\C)[C@@H](O)[C@@H](OC)C(=O)[C@H](C)C[C@H](C)/C=C/C=C/C=C/1C [Ridaforolimus]	1.04	> 100		9.75		0.4	0.18	0.53	
CNC(=O)c1cccc(-c2ccc3c(N4CCOC[C@@H]4C)nc(N4CCOC[C@@H]4C)nc3n2)c1 [AZD2014]	137		24.8	714	317	266	36.7	117	295
CS(=O)(=O)c1ccc(C(=O)Nc2ccc(Cl)c(-c3ccccn3)c2)c(Cl)c1 [Vismodegib]					1400				
CCC(C)n1ncn(-c2ccc(N3CCN(c4ccc(OCC5COC(Cn6cncn6)(c6ccc(Cl)cc6Cl)O5)cc4)CC3)cc2)c1=O (stereo unspecified) [Itraconazole]	1160		1030	1300	572	1080	1770	503	
Nc1nc(N)c2nc(-c3cccc(O)c3)c(-c3cccc(O)c3)nc2n1 [TG100-115]								132	
CC(=O)O[C@H]1C(=O)[C@@]2(C)[C@H]([C@H](OC(=O)c3ccccc3)[C@]3(O)C[C@H](OC(=O)[C@H](O)[C@@H](NC(=O)c4ccccc4)c4ccccc4)C(C)=C1C3(C)C)[C@]1(OC(C)=O)CO[C@@H]1C[C@@H]2O [Paclitaxel]	3.25	3.31	2.92	6.15	22	4.26	4.61	3.77	5.42
O=C(Nc1cccc(C(F)(F)F)c1)Nc1cc(S(=O)(=O)NC2CC2)ccc1-c1ccsc1 [AGI-6780]					1390				
CC1(C)CNc2cc(NC(=O)c3cccnc3NCc3ccncc3)ccc21 [Motesanib]								> 10000	
Nc1ncn([C@H]2C[C@H](O)[C@@H](CO)O2)c(=O)n1 [Decitabine]	436		26.9	678	392	474		31.8	
Cn1cc(-c2cnn3c(N)c(Br)c([C@@H]4CCCNC4)nc23)cn1 [MK-8776]	539		337	311	750	668	372		
COc1cc(N2CCC(N3CCN(C)CC3)CC2)ccc1Nc1ncnc(Nc2ccccc2S(=O)(=O)C(C)C)n1 [ASP3026]	3110	3350		1900					1830
CC[C@H](Nc1ncnc2[nH]cnc12)c1nc2cccc(F)c2c(=O)n1-c1ccccc1 [Idelalisib]	675				31.7			891	
FC(F)c1nc2ccccc2n1-c1nc(N2CCOCC2)nc(N2CCOCC2)n1 [ZSTK474]	110		290		31.2	655	436	832	262
